Laboratory results published in US7186544B2, “Agents for promoting fattening of animals and method of promoting fattening” (Fuso Chemical Co., Ltd., priority 1999, dated 2007).

What was measured:
[1] = tested on: new born broiler chicks (Chunky); assay: Test Example 3: feeding / drinking water test in broiler chicks, 8 weeks; type: in vivo, chickens; conditions: 0.5% in feed and 0.14% in drinking water vs chicks not having taken sodium gluconate
Procedure: The feeds of Example 10 and Comparative Example 4 and the drinking water prepared in Example 11 were fed to groups of new born broiler chicks (Chunky), each group being composed of 50 chicks (25 male chicks and 25 female chicks), continuously for 8 weeks. At the start of the feeding test, on two weeks, 4 weeks and 6 weeks after the start of the test, and at the end of the test, that is, five times in all, the chicks were weighed individually, and an increase in the body weight was calculated for every group. In each group, checked was the feed intake during the period between the days on which the body weight was measured, and the feed conversion ratio was calculated from the overall body weight increase and the overall feed intake.

piglets = assay: Test Example 4: feeding test in piglets, 8 weeks, sodium gluconate dose series; type: in vivo, pigs; conditions: for Body Weight Increase ± S.D. / Feed Conversion Ratio ± S.D.: piglets about 20 kg, 8 weeks; for Body Weight Increase (index %) / Feed Conversion Ratio (index %): control with no additive = 100
Description: To a feed for latter artificial milk suckling-stage piglets (manufactured by Nippon Kagaku Shiryo Kyokai) and to a feed for raising piglets (manufactured by Nippon Kagaku Shiryo Kyokai), added were 0.05, 0.1, 0.25, 0.5 and 1.0%, relative to the weight of the feeds, of sodium gluconate.
The above-mentioned feeds were fed to groups of piglets (body weight: about 20 kg), each group being composed of 4 piglets (2 male piglets and 2 female piglets), continuously for 8 weeks (the feed for latter artificial milk for the former 2 weeks and the feed for raising piglets for the latter 6 weeks). During the period of the feeding test, each of the piglets was weighed every week, and an increase in the body weight was calculated for every group. In each group, checked was the feed intake during the period between the days on which the body weight was measured, and the feed conversion ratio was calculated.
This test was repeated 10 times for the group not having taken sodium gluconate and the group having taken 0.5% sodium gluconate, but 5 times for the other groups having taken sodium gluconate in different concentrations. The obtained body weight increases and the feed conversion ratios were averaged for every group.

[2] = tested on: contents of pig large intestines; assay: Example 12: static culture of pig large intestine contents, acids and ammonia; type: cell-based, pigs
Procedure: Three pigs were acclimated for 1 week, and the contents of their large intestines were taken out. The contents were diluted 5-fold with an anaerobic phosphate buffer (50 mM, pH 6.5), and then filtrated through 4-layered gauze. 25 mL of the resulting filtrate was put into serum bottles of 120 mL volume, and the gas phase therein was purged with a mixed gas of nitrogen/carbon dioxide (80/20). The bottles were sealed with butyl rubber stoppers and aluminum seals, and left for static culture at 39° C. for 24 hours (n=3).
Prior to putting the intestinal filtrate into the serum bottles, 1 w/v % glucose (positive control) and 1 w/v % sodium gluconate were put in the bottles, except for an additive-free control (negative control).
After the intestinal filtrate was thus cultivated, 1 mL of 6 N hydrochloric acid was added thereto to stop fermentation. The resulting cultures were analyzed as follows:
The cultures were pre-treated according to the Ushida and Sakata's conditions (Anim. Sci. Technol., 69, 571–575, […]), and then were analyzed on the concentration of short-chain fatty acids, succinic acid and lactic acid therein by HPLC and the concentration of ammonia therein by the indophenol method (Weatherburn, Analytic Chem., 39, 971–974, 1967). Subtracting the concentration before cultivation from that after cultivation gives the amount (mM) generated through fermentation.

[3] = tested on: contents of pig large intestines; assay: Example 13: fermentation gas generated in culture of pig large intestine contents; type: cell-based, pigs
Procedure: The amount of fermentation gas generated in the cultivation of Example 12 was measured by putting a glass syringe equipped with an injection needle into a head space of the serum bottle, sucking the gas until normal pressure is reached and measuring the sucked gas by a syringe scale.
The composition of the gas was analyzed for carbon dioxide, methane, hydrogen and hydrogen sulfide by TCD and FPD gas chromatography (Ushida, et al.; Jpn. J. Zootech. Sci., 53, 412–416, 1982, and Anim. Sci. Technol., 69, 571–575, 1998).

anaerobic microorganisms = assay: Example 14: number of colonies of anaerobic microorganisms in PYF culture of pig intestinal filtrate; type: cell-based, pigs
Procedure: (§1) Pigs were acclimated for 1 week, and the contents of their large intestines were taken out. The contents were diluted 5-fold with an anaerobic phosphate buffer (50 mM, pH 6.5), and then filtrated through 4-layered gauze. One mL of the resulting filtrate was inoculated on a PYF medium (100 mL) with 1 w/v % sodium gluconate added thereto, and incubated in an anaerobic condition at 39° C.
(§2) During incubation, 5 mL of a sterilized 10 w/v % aqueous solution of sodium gluconate were put into the medium at intervals of 48 hours.
(§3) The culture without sodium gluconate and the culture with sodium gluconate added thereto were sampled on 0, 8, 24, 48, 96 and 144 hours in a germ-free condition, and the samples were diluted to 10^−5. 0.05 mL of each dilution were inoculated on BL agar media (manufactured by Nissui), and anaerobically incubated at 37° C. for 48 hours. The number of colonies of anaerobic microorganisms having grown in agar plates was counted (Table 7).

Megasphaera elsdenii [4] = assay: Example 14: count of isolated strain in 144-hour culture; type: cell-based
Procedure: as §1, §2, §3
(§4) At the same time, according to the properties of the colonies thus grown, strains having grown only on the agar plate inoculated with the 144-hour sample of sodium gluconate-added culture were isolated, and they were counted and identified (Table 8).

Mitsuokella multiacidus [5] = assay: as above; type: cell-based
Procedure: as §1, §2, §3, §4

Megasphaera elsdenii [6] = assay: Example 15: short-chain fatty acid production by isolated strain; type: cell-based
Procedure: (§5) The strains Megasphaera elsdenii and Mitsuokella multiacidus having grown in Example 14 were anaerobically incubated in PYF media (100 mL) with 1% w/v sodium gluconate added thereto, at 39° C. for 24 hours. The cultures were analyzed on the concentration of the short-chain fatty acids (mM) therein in the same manner as in Example 12.

Mitsuokella multiacidus [7] = assay: as above; type: cell-based
Procedure: as §5

[8] = 0.05% added to feed, 5 test cycles
[9] = 0.1% added to feed, 5 test cycles
[10] = 0.25% added to feed, 5 test cycles
[11] = 0.5% added to feed, 10 test cycles
[12] = 1.0% added to feed, 5 test cycles
[13] = after cultivation, 1 w/v % additive, 39° C., 24 hours, n=3
[14] = index based on the data before cultivation of 100
[15] = cultivation of Example 12, 1 w/v % additive, n=3
[16] = 144-hour sample of sodium gluconate-added culture
[17] = PYF medium with 1% w/v sodium gluconate, 39° C., 24 hours
[18] = sodium gluconate added minus control with no additive

O=C([O-])[C@H](O)[C@@H](O)[C@H](O)[C@H](O)CO.[Na+] [Sodium Gluconate, sodium gluconate]
feed efficiency improved by [1]: 6% | Body Weight Increase ± S.D. (piglets; [8]): 39.96 ± 5.83 kg | Feed Conversion Ratio ± S.D. (piglets; [8]): 2.62 ± 0.15 | Body Weight Increase (index %) (piglets; 0.05% added to feed): (104) % | Feed Conversion Ratio (index %) (piglets; 0.05% added to feed): (97) % | Body Weight Increase ± S.D. (piglets; [9]): 40.92 ± 4.49 kg | Feed Conversion Ratio ± S.D. (piglets; [9]): 2.58 ± 0.11 | Body Weight Increase (index %) (piglets; 0.1% added to feed): (106) % | Feed Conversion Ratio (index %) (piglets; 0.1% added to feed): (96) % | Body Weight Increase ± S.D. (piglets; [10]): 41.26 ± 3.44 kg | Feed Conversion Ratio ± S.D. (piglets; [10]): 2.55 ± 0.17 | Body Weight Increase (index %) (piglets; 0.25% added to feed): (107) % | Feed Conversion Ratio (index %) (piglets; 0.25% added to feed): (94) % | Body Weight Increase ± S.D. (piglets; [11]): 40.43 ± 4.40 kg | Feed Conversion Ratio ± S.D. (piglets; [11]): 2.63 ± 0.12 | Body Weight Increase (index %) (piglets; 0.5% added to feed): (105) % | Feed Conversion Ratio (index %) (piglets; 0.5% added to feed): (97) % | Body Weight Increase ± S.D. (piglets; [12]): 39.28 ± 2.58 kg | Feed Conversion Ratio ± S.D. (piglets; [12]): 2.74 ± 0.05 | Body Weight Increase (index %) (piglets; 1.0% added to feed): (102) % | Feed Conversion Ratio (index %) (piglets; 1.0% added to feed): (101) % | Acetic Acid [2, 13]: 161.90 mM | Ammonia [2, 13]: 5.79 mM | Butyric Acid [2, 13]: 70.36 mM | Lactic Acid [2, 13]: 0 mM | Propionic Acid [2, 13]: 103.25 mM | Succinic Acid [2, 13]: 0 mM | lactic acid, succinic acid and ammonia in the cultures ([2]; in words): greatly reduce | concentration of acetic acid, propionic acid and butyric acid in the cultures ([2]; in words, compared with cultures without sodium gluconate): greatly increased | Acetic Acid (index) [2, 14]: (404) | Ammonia (index) [2, 14]: (74) | Butyric Acid (index) [2, 14]: (1305) | Lactic Acid (index) [2, 14]: (0) | Propionic Acid (index) [2, 14]: (941) | Succinic Acid (index) [2, 14]: (0) | Carbon Dioxide [3, 15]: 4330 µL/g | Hydrogen [3, 15]: 211.99 µL/g | Hydrogen Sulfide [3, 15]: 0.09 µL/g | Methane [3, 15]: 30 µL/g | Total Gas [3, 15]: 6880 µL/g | hydrogen sulfide in the cultures ([3]; in words, compared with cultures with no additives): greatly reduced | number of anaerobic microorganisms (anaerobic microorganisms; 0 hrs after start of incubation, 1 w/v % in PYF medium, 39° C.): <6.3 logarithmic number of the cells in 1 g of culture | number of anaerobic microorganisms (anaerobic microorganisms; 8 hrs after start of incubation): 8.9 logarithmic number of the cells in 1 g of culture | number of anaerobic microorganisms (anaerobic microorganisms; 24 hrs after start of incubation): 10.7 logarithmic number of the cells in 1 g of culture | number of anaerobic microorganisms (anaerobic microorganisms; 48 hrs after start of incubation): 8.7 logarithmic number of the cells in 1 g of culture | number of anaerobic microorganisms (anaerobic microorganisms; 96 hrs after start of incubation): 10.4 logarithmic number of the cells in 1 g of culture | number of anaerobic microorganisms (anaerobic microorganisms; 144 hrs after start of incubation): 7.7 logarithmic number of the cells in 1 g of culture | total number of anaerobic microorganisms (anaerobic microorganisms; in words): increased | number of Megasphaera elsdenii (Megasphaera elsdenii [4]; [16]): 6.4 logarithmic number of the cells in 1 g of culture | Megasphaera elsdenii number (Megasphaera elsdenii [4]; in words): observed to increase | number of Mitsuokella multiacidus (Mitsuokella multiacidus [5]; [16]): 7.2 logarithmic number of the cells in 1 g of culture | Mitsuokella multiacidus number (Mitsuokella multiacidus [5]; in words): observed to increase | Acetic Acid (Megasphaera elsdenii [6]; [17]): 8.7 mM | Butyric Acid (Megasphaera elsdenii [6]; [17]): 4.9 mM | Propionic Acid (Megasphaera elsdenii [6]; [17]): 0.8 mM | short-chain fatty acids produced by Megasphaera elsdenii utilizing sodium gluconate (Megasphaera elsdenii [6]; in words): produced a lot of acetic acid and butyric acid | Acetic Acid, Difference (Megasphaera elsdenii [6]; [18]): 2.9 mM | Butyric Acid, Difference (Megasphaera elsdenii [6]; [18]): 3.5 mM | Propionic Acid, Difference (Megasphaera elsdenii [6]; [18]): -0.8 mM | Acetic Acid (Mitsuokella multiacidus [7]; [17]): 9.9 mM | Butyric Acid (Mitsuokella multiacidus [7]; [17]): 1.0 mM | Propionic Acid (Mitsuokella multiacidus [7]; [17]): 43.1 mM | short-chain fatty acids produced by Mitsuokella multiacidus utilizing sodium gluconate (Mitsuokella multiacidus [7]; in words): produced a lot of acetic acid and propionic acid | Acetic Acid, Difference (Mitsuokella multiacidus [7]; [18]): 7.0 mM | Butyric Acid, Difference (Mitsuokella multiacidus [7]; [18]): 0.7 mM | Propionic Acid, Difference (Mitsuokella multiacidus [7]; [18]): 36.1 mM
